In patent US10519134B2, “Pyrazole compounds and methods of making and using same” (Lundbeck La Jolla Research Center, Inc., priority 2015, dated 2019):
pIC50: −log10 of the molar value.

Tests used:
MAGL [1] = target: T1, MAGL (Mus musculus, UniProt O35678); experiment: Mouse brain proteomes from inhibitor treated mice (oral gavage, sacrificed 4 h after administration); format: in vivo; settings: read-out: MAGL % inh. 5 mg/kg
T1 construct: Proteomes (mouse brain membrane fraction or cell lysates); from tissue; host or cells: mouse brain membrane fraction (or cell lysates)
T1 sequence (O35678 1-303): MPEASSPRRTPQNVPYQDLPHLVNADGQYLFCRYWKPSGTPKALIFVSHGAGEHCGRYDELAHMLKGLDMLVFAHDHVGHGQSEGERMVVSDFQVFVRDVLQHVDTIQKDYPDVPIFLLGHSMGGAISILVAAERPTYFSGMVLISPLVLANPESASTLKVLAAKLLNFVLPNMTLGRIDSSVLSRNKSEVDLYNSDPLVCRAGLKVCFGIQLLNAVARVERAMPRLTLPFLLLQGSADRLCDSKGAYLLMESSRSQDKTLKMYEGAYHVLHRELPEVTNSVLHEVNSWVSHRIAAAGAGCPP
How it was run: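 Brains were collected 4 h after oral gavage dosing of wild-type C57Bl/6J mice, vehicle polyethylene glycol. Proteomes from these brains were then analyzed for MAGL and other serine hydrolase activity.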

MAGL [2] = target: T2, MAGL (Homo sapiens, UniProt Q99685); experiment: In vitro competitive activity-based protein profiling (human), MAGL gel band; format: biochemical
T2 construct: Proteomes (human prefrontal cortex or cell membrane fractions); from tissue; host or cells: human prefrontal cortex (or cell membrane fractions)
T2 sequence (Q99685 1-303): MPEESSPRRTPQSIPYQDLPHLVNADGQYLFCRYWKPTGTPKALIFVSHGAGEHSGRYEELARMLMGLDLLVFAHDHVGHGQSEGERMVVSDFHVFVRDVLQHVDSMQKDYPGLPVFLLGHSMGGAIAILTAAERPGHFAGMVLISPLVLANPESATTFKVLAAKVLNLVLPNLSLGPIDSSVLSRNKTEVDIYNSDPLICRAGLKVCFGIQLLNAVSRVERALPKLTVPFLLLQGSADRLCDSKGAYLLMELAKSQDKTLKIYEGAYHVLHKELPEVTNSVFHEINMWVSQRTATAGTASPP
How it was run: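 Human prefrontal cortex or cell membrane proteomes (1.0-2.0 mg/mL protein) preincubated with inhibitors 30 min at 37° C, then labelled with FP-Rh or JW912 probe 30 min at room temperature. Residual MAGL activity read as fluorescent gel-band intensity after SDS-PAGE.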

FAAH = target: T3, FAAH (Mus musculus, UniProt O08914); experiment: In vitro competitive activity-based protein profiling (mouse), FAAH gel band; format: biochemical; settings: for inhibition at 1 µM: read-out: FAAH % inh. 1 μM
T3 construct: Proteomes (mouse brain membrane fraction or cell lysates); from tissue; host or cells: mouse brain membrane fraction (or cell lysates)
T3 sequence (O08914 1-579): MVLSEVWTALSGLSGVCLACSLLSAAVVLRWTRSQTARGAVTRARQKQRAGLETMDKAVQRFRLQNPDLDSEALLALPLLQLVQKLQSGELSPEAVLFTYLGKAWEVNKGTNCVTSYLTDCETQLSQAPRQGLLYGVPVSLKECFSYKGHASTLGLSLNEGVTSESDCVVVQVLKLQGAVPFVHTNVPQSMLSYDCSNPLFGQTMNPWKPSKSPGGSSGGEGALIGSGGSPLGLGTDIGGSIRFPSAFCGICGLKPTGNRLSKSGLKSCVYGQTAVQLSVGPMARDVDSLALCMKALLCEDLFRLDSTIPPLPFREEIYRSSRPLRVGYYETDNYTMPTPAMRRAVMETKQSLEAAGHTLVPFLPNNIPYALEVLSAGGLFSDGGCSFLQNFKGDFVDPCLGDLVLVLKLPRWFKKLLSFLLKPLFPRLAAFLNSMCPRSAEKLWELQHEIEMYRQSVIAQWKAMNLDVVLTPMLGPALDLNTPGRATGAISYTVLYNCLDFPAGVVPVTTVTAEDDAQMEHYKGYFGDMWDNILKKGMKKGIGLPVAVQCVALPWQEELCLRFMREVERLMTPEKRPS
How it was run: (§1)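 Mouse brain membrane proteome or cell lysate (1.0 mg/mL total protein) was preincubated with varying inhibitor concentrations for 30 min at 37 °C, then labelled for 30 min at 37 °C with FP-Rh or HT-01 (50 μM stock in DMSO). Activity was read as fluorescent band intensity after SDS-PAGE.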

MAGL [3] = target: T1, MAGL; experiment: In vitro competitive activity-based protein profiling (mouse), MAGL gel band; format: biochemical; settings: for inhibition at 1 µM: read-out: MAGL % inh. 1 μM
How it was run: as §1

SMILES | inhibition at 5 mg/kg (MAGL [1]) [%] | pIC50 (MAGL [2]) | inhibition at 1 µM (FAAH) [%] | inhibition at 1 µM (MAGL [3]) [%] | pIC50 (FAAH; mouse) | pIC50 (MAGL [3]; mouse)
CC(=O)N1CC2CCC(C1)N2c1cc(C(F)(F)F)ccc1CN1CCN(C(=O)n2ccc(NS(C)(=O)=O)n2)CC1 [Example 207, N-(1-(4-(2-(3-acetyl-3,8-diazabicyclo[3.2.1]octan-8-yl)-4-(trifluoromethyl)benzyl)piperazine-1-carbonyl)-1H-pyrazol-3-yl) methanesulfonamide] | 0 to 25 | ≥ 7.00 | 0 to 25 | ≥ 75 | – | –
CS(=O)(=O)Nc1ccn(C(=O)N2CCN(Cc3ccc(C(F)(F)F)c(N4C5CCC4COC5)c3)CC2)n1 [Example 218, N-(1-(4-(3-(3-oxa-8-azabicyclo[3.2.1]octan-8-yl)-4-(trifluoromethyl)benzyl)piperazine-1-carbonyl)-1H-pyrazol-3-yl) methanesulfonamide] | 25 to 50 | ≥ 7.00 | 0 to 25 | ≥ 75 | – | –
CS(=O)(=O)Nc1ccn(C(=O)N2CCN(Cc3ccc(Cl)c(-c4nccs4)c3)CC2)n1 [Example 221, N-(1-(4-(4-chloro-3-(thiazol-2-yl)benzyl)piperazine-1-carbonyl)-1H-pyrazol-3-yl) methanesulfonamide] | 0 to 25 | ≥ 7.00 | 0 to 25 | ≥ 75 | – | –
CC(=O)N1CCC2(CC1)CN(c1cc(C(F)(F)F)ccc1CN1CCN(C(=O)n3ccc(NS(C)(=O)=O)n3)CC1)C2 [Example 229, N-(1-(4-(2-(7-acetyl-2,7-diazaspiro[3.5]nonan-2-yl)-4-(trifluoromethyl)benzyl)piperazine-1-carbonyl)-1H-pyrazol-3-yl) methanesulfonamide] | 0 to 25 | ≥ 7.00 | 0 to 25 | ≥ 75 | – | –
CS(=O)(=O)Nc1ccn(C(=O)N2CCN(Cc3ccc(Cl)c(-c4ccc(C(F)(F)F)nc4)c3)CC2)n1 [Example 233, N-(1-(4-(4-chloro-3-(6-(trifluoromethyl)pyridin-3-yl)benzyl)piperazine-1-carbonyl)-1H-pyrazol-3-yl) methanesulfonamide] | 25 to 50 | ≥ 7.00 | 0 to 25 | ≥ 75 | – | –
[2H]C([2H])([2H])c1cc(CN2CCCC23CCN(C(=O)n2ccc(NC(C)=O)n2)CC3)ccc1Cl [Example 294, N-(1-(1-(4-chloro-3-(methyl-d3)benzyl)-1,8-diazaspiro[4.5]decane-8-carbonyl)-1H-pyrazol-3-yl)acetamide] | ≥ 75 | ≥ 7.00 | 0 to 25 | ≥ 75 | – | –

Continued, values first:

inhibition at 5 mg/kg (MAGL [1]) [%] | pIC50 (MAGL [2]) | inhibition at 1 µM (FAAH) [%] | inhibition at 1 µM (MAGL [3]) [%] | pIC50 (FAAH; mouse) | pIC50 (MAGL [3]; mouse) | SMILES
0 to 25 | ≥ 7.00 | 0 to 25 | ≥ 75 | – | – | CS(=O)(=O)Nc1ccn(C(=O)N2CCN(Cc3ccc(Cl)c(N4CC5CN(S(C)(=O)=O)CC5C4)c3)CC2)n1 (stereo not drawn) [Example 217, N-(1-(4-(4-chloro-3-(5-(methylsulfonyl)hexahydropyrrolo[3,4-c]pyrrol-2(1H)-yl)benzyl)piperazine-1-carbonyl)-1H-pyrazol-3-yl) methanesulfonamide]
25 to 50 | ≥ 7.00 | 0 to 25 | ≥ 75 | – | – | CS(=O)(=O)Nc1ccn(C(=O)N2CCN(Cc3ccc(Cl)c(OC4CCOCC4)c3)CC2)n1 [Example 219, N-(1-(4-(4-chloro-3-((tetrahydro-2H-pyran-4-yl)oxy)benzyl)piperazine-1-carbonyl)-1H-pyrazol-3-yl) methanesulfonamide]
0 to 25 | ≥ 7.00 | 0 to 25 | ≥ 75 | – | – | CC(=O)N1CCC2(CC1)CCN(c1cc(C(F)(F)F)ccc1CN1CCN(C(=O)n3ccc(NS(C)(=O)=O)n3)CC1)C2 [Example 232, N-(1-(4-(2-(8-acetyl-2,8-diazaspiro[4.5]decan-2-yl)-4-(trifluoromethyl)benzyl)piperazine-1-carbonyl)-1H-pyrazol-3-yl) methanesulfonamide]
0 to 25 | ≥ 7.00 | 0 to 25 | ≥ 75 | 5.00 to 6.00 | ≥ 7.00 | CS(=O)(=O)Nc1ccn(C(=O)N2CCN(Cc3cccc(Cl)c3N3CC4CCC(C3)O4)CC2)n1 [Example 288, N-(1-(4-(2-(8-oxa-3-azabicyclo[3.2.1]octan-3-yl)-3-chlorobenzyl)piperazine-1-carbonyl)-1H-pyrazol-3-yl) methanesulfonamide]
